System: high-cholesterol hyperlipidemia rats
Experiment: In vivo lipid-lowering experiment in high-cholesterol hyperlipidemia rats
Set-up: species or system Wistar rats
Settings: plasma, positive drug 8 mg/kg, half a month
Description: 56 male Wistar rats (8 weeks old, body weight: 200 g±20 g) were purchased from Beijing Vital River Laboratory Animal Technology Co., Ltd. All animals were fed with a normal diet adaptively for 1 week.
The rats were sampled every half month to determine the plasma total triglyceride (TG), total cholesterol (TC), low-density lipoprotein (LDL-C), and high-density lipoprotein (HDL-C) levels. 2 months later, all rats were anesthetized with isoflurane, and then blood samples were collected from the orbital vein using capillary tubes. The blood samples were centrifuged (4° C., 4,000 r×min^−1, and 15 min) to obtain plasma samples, a kit (purchased from Nanjing Jiancheng Biotechnology Co., Ltd., China) was used to make a standard curve, and a chromogenic reaction was conducted according to specified steps to determine the plasma TG, TC, LDL-C, and HDL-C levels, thereby determining whether hyperlipidemia models were successfully constructed.
The rats were intragastrically administered for half a month. The night before the experiment, the rats were fasted; and on the day of the experiment, the rats were weighed and resulting body weights were recorded. The rats were anesthetized with isoflurane, then blood was collected from the orbit and placed in a heparin sodium centrifuge tube, and blood samples were centrifuged (4° C., 4,000 r×min^−1, and 15 min) to obtain plasma samples. A kit (purchased from Nanjing Jiancheng Biotechnology Co., Ltd., China) was used to make a standard curve, and the plasma TG, TC, LDL-C, and HDL-C levels were determined according to specified steps. The rats were sacrificed through cervical dislocation, and then a liver tissue was collected and weighed. A liver index was calculated according to the following formula: liver index=liver weight (g)/rat weight (g).
Data analysis: In this experiment, the SPSS11.5 version was used to analyze data (3 repetitions), and analysis of variance (ANOVA) and intergroup Duncan multiple comparison were adopted.

SMILES: CCC(C)(C)C(=O)O[C@H]1C[C@@H](C)C=C2C=C[C@H](C)[C@H](CC[C@@H]3C[C@@H](O)CC(=O)O3)[C@H]21 [Simvastatin, simvastatin]
- HDL-C: 2.89 ± 0.44 b mmol/L
- LDL-C: 0.51 ± 0.09 b mmol/L
- TG: 0.87 ± 0.27 c mg/mL

Reference: US11767374B2, “Method and use of Radix puerariae polysaccharide in promoting lipid-lowering activity” (JIANGXI UNIVERSITY OF TRADITIONAL CHINESE MEDICINE, priority 2020, dated 2023)
